Where a name gives a salt, the structure may show the parent alone. Read-outs that look alike come from different tables or passages of the source.
Columns and labels:
MCL-1 = MCL-1 (Homo sapiens (Human), UniProt Q07820, K194A/K197A/R201A); experiment: Protein-protein interaction assay MCL-1/Noxa BH3 peptide (MCL-1 assay), TR-FRET; format: binding; conditions: MCL-1/Noxa BH3 peptide TR-FRET; median
Outline: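 TR-FRET competition between MBP-MCL-1 (173-321, 1 nM) and biotin-Noxa BH3 peptide (1 nM) with anti-MBP-Eu/streptavidin-XL665; 11 compound levels 0.1 nM–20 μM, 10 min preincubation. Incubated 1 h at 22 °C then overnight at 4 °C, pH 7 Tris buffer. 665/620 ratio normalized to DMSO and no-MCL-1; 4-parameter IC50.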

SUDHL10 [1] = experiment: Induction of caspase-3/7 activity, SUDHL10 (Assay 4); format: cell-based; conditions: SUDHL10 cells
Outline: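 DLBCL lines treated with compounds for 3 h at 37° C.; caspase-3/7 activity read by Caspase-Glo 3/7 luminescence. Medium-only background subtracted; EC50 fitted with bottom fixed at 1 and top set to reference compound's maximal induction.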

AMO-1 = experiment: Antiproliferation assay AMO-1 (Assay 7); format: cell-based; conditions: AMO-1 cells, CellTiter-Glo, single determinations, read-out: IC50 Antiproli AMO-1
Outline: (§1)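 Proliferation is determined by CellTiter-Glo luminescence following 72 h incubation with compound at 37 °C, relative to a time-zero plate measured at plating.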

A2780 = experiment: Antiproliferation assay A2780 (Assay 7); format: cell-based; conditions: A2780 cells, CellTiter-Glo, single determinations, read-out: IC50 Antiproli A2780
Outline: as §1

SUDHL10 [2] = experiment: Induction of cytotoxicity, SUDHL10 (Assay 6); conditions: read-out: IC50 Cytotox SUDHL10 [M] (median), SUDHL10 cells, 5 h, CellTiter-Glo
[3] = Homo sapiens, SU-DHL10, 3 h, Caspase-Glo 3/7, median

Chain of MCL-1 (Q07820 whole entry K194A/K197A/R201A, looked up): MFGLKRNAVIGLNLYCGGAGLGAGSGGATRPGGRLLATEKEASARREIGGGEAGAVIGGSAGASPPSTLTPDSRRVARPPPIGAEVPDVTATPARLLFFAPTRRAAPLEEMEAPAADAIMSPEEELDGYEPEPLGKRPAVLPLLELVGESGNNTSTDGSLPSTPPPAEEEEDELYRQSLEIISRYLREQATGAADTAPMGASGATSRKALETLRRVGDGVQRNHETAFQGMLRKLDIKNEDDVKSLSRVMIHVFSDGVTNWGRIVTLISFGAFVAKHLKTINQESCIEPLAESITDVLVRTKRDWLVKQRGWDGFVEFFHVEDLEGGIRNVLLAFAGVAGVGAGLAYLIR

Structure (SMILES)	IC50 (MCL-1) [nM]	EC50 (SUDHL10 [1]; [3]) [nM]	IC50 (A2780; Homo sapiens, A2780, 72 h) [nM]	IC50 (AMO-1; Homo sapiens, AMO1, 72 h) [nM]	IC50 (SUDHL10 [2]; Homo sapiens, SU-DHL10, 5 h) [M]	EC50 (SUDHL10 [1]; 3 h, Caspase-Glo 3/7, median) [nM]	IC50 (AMO-1; 72 h) [nM]	IC50 (A2780; 72 h) [nM]	IC50 (SUDHL10 [2]) [M]
CCc1c2c(nn1C)COCCCCn1c(C(=O)O)c(CCCOc3cccc4c3CCCC4)c3ccc(F)c-2c31 (racemic) [Example 29, (rac)-12-ethyl-13-fluoro-11-methyl-1-(3-((5,6,7,8-tetrahydronaphthalen-1-yl)oxy)propyl)-4,5,6,7,9,11-hexahydropyrazolo[4′,3′:9,10][1]oxa[6]azacycloundecino[8,7,6-hi]indole-2-carboxylic acid]	1.5	1700	9170	2440	1.8e-06	–	–	–	–
CCc1c2c(nn1C)COCCCCn1c(C(=O)O)c(CCCOc3cc(C)c(Cl)c(C)c3)c3ccc(F)c-2c31 (racemic) [Example 31, (rac)-1-(3-(4-chloro-3,5-dimethylphenoxy)propyl)-12-ethyl-13-fluoro-11-methyl-4,5,6,7,9,11-hexahydropyrazolo[4′,3′:9,10][1]oxa[6]azacycloundecino[8,7,6-hi]indole-2-carboxylic acid]	1.8	4500	12100	> 33000	3.6e-06	–	–	–	–
CCc1nn(C)c2c1-c1c(F)ccc3c(CCCOc4cccc5cc(F)ccc45)c(C(=O)O)n(c13)CCCCOC2 (single isomer, unassigned; enantiomer 1) [Example 39, 3-ethyl-4-fluoro-7-{3-[(6-fluoronaphthalen-1-yl)oxy]propyl}-1-methyl-1,10,11,12,13,15-hexahydropyrazolo[4′,3′:9,10][1,6]oxazacycloundecino[8,7,6-hi]indole-8-carboxylic acid-N-ethylethanamine salt (enantiomer 1)]	0.8	–	–	–	–	940	1720	4840	1e-06
Cc1c2c(nn1C)CNCCCCn1c(C(=O)O)c(CCCOc3cccc4ccccc34)c3ccc(F)c-2c31 (single isomer, unassigned; enantiomer 1) [Example 48, 4-fluoro-2,3-dimethyl-7-{3-[(naphthalen-1-yl)oxy]propyl}-10,11,12,13,14,15-hexahydro-2H-pyrazolo[3′,4′:8,9][1,6]diazacycloundecino[10,11,1-hi]indole-8-carboxylic acid (enantiomer 1)]	1.1	–	–	–	–	2100	2860	7170	1.9e-06

Continued, in another order:

IC50 (MCL-1) [nM]	EC50 (SUDHL10 [1]; [3]) [nM]	IC50 (A2780; Homo sapiens, A2780, 72 h) [nM]	Structure (SMILES)	IC50 (AMO-1; Homo sapiens, AMO1, 72 h) [nM]	IC50 (SUDHL10 [2]; Homo sapiens, SU-DHL10, 5 h) [M]	EC50 (SUDHL10 [1]; 3 h, Caspase-Glo 3/7, median) [nM]	IC50 (AMO-1; 72 h) [nM]	IC50 (A2780; 72 h) [nM]	IC50 (SUDHL10 [2]) [M]
1.4	6400	28200	CCc1nn(C)c2c1-c1c(F)ccc3c(CCCOc4cccc5c4CCC5)c(C(=O)O)n(c13)CCCCOC2 (racemic) [Example 45, (rac)-1-(3-((2,3-dihydro-1H-inden-4-yl)oxy)propyl)-12-ethyl-13-fluoro-10-methyl-4,5,6,7,9,10-hexahydropyrazolo[4′,3′:9,10][1]oxa[6]azacycloundecino[8,7,6-hi]indole-2-carboxylic acid]	6450	3.4e-06	–	–	–	–
1.3	5900	20900	Cc1nn(C)c2c1-c1c(F)ccc3c(CCCOc4cccc5c4CCCC5)c(C(=O)O)n(c13)CCCCOC2 (racemic) [Example 34, (rac)-13-fluoro-10,12-dimethyl-1-(3-((5,6,7,8-tetrahydronaphthalen-1-yl)oxy)propyl)-4,5,6,7,9,10-hexahydropyrazolo[4′,3′:9,10][1]oxa[6]azacycloundecino[8,7,6-hi]indole-2-carboxylic acid]	6920	4.2e-06	–	–	–	–
